ChEMBL document CHEMBL1150964, “Munchiwarin, a prenylated chalcone from crotalaria trifoliastrum” (J Nat Prod, 1998)
≈ marks a conversion by molar mass, not a printed value. Calls of active or inactive are those of the source. The rule behind the calls is not given here.

Columns and labels:
[1] = Cytotoxicity against human BC1 cells; format: functional, cell-based
KB [2] = experiment: Cytotoxicity against human KB cells; format: functional, cell-based
KB [3] = experiment: Cytotoxicity against drug-resistant human KB cells in absence of vinblastine; format: functional, cell-based
[4] = biological target: Human immunodeficiency virus type 1 reverse transcriptase (Human immunodeficiency virus 1) (UniProt Q72547); experiment: Inhibition of HIV1 reverse transcriptase
Col2 = experiment: Cytotoxicity against human Col2 cells; format: functional, cell-based
KB [5] = experiment: Cytotoxicity against drug-resistant human KB cells in presence of vinblastine; format: functional, cell-based

Structure (SMILES): CC(C)=CCC1=C/C(=C(O)\C=C\c2ccc(O)cc2)C(=O)C(CC=C(C)C)(CC=C(C)C)C1=O [MUNCHIWARIN]
- IC50 [1]: 9 µg/mL (≈ 19.5 µM)
- IC50 (KB [2]): 11 µg/mL (≈ 23.9 µM)
- IC50 (KB [3]): 14 µg/mL (≈ 30.4 µM)
- Activity [4]: inactive
- IC50 (Col2): 9 µg/mL (≈ 19.5 µM)
- IC50 (KB [5]): 13 µg/mL
